Results published in patent US10676440B2, “Crystalline forms of an NK-1 antagonist” (Helsinn Healthcare SA, priority 2014, dated 2020).

Experiments:
[1] = in vivo; details: male, RoRo Fuellinsdorf, rat, in vivo; for AUC(0-t): AUC (0-24 h)
Description: In Example 11, the pharmacokinetics of the compound of Formula I was evaluated following single intravenous, intraperitoneal, and oral administration to rats to compare the oral bioavailability of two different formulations and to measure the brain penetration after intravenous administration.
A solution of the compound of Formula I (4.7 mg/mL) in water and a suspension of the compound of Formula I (5 mg/mL) in SSV (standard suspension vehicle) were prepared.
The experiments were performed in 20 male rats (Strain RoRo Fuellinsdorf, body weight 230-290 g) from Biological Research Laboratories, Fuellinsdorf, Switzerland. The animals were housed under standard laboratory conditions throughout the study period. After an acclimatization period of 3 days, the rats were implanted with chronic jugular catheters under pentobarbital anesthesia. After surgery the rats were on recovery for 2 days before dosing. They had free access to water and food during the experiment.
For the pharmacokinetic studies, 0.4 mL blood samples were collected at different time points, up to 72 hours post-dose, from the jugular vein of the rats via catheter. For the study of brain and CSF penetration, 2 mL blood samples as well as CSF and brain were collected between 0.3 and 2 hours post-dose from one rat at each time point. Collection tubes contained EDTA/NAF as anticoagulant and stabilizer, respectively. After centrifugation, plasma was removed. Plasma, CSF and brain samples were stored deep-frozen at approximately −20° C. until analysis using a specific LC-MS method.
Aliquots of plasma samples of 40 μL were mixed with 50 μL buffer pH 9, 50 μL of a Formula I internal standard (1 μg/mL 1-chlorobutane) and 250 μL butylacetate and then shaken for 10 min. After centrifugation, 200 μL of the supernatant were evaporated to dryness at 45° C. under a stream of nitrogen. The residue was reconstituted with 200 μL acetonitrile/1% formic acid in water (30/70, v/v). An aliquot of 30 μL was injected onto an analytical column (Waters, Symmetry C8, 2.1×150 mm, 5 μm).
The sample passed to the ion-spray interface of the single quadrupole mass spectrometer. Selected ion monitoring mode (SIM) was used for mass spectrometric detection. Quantification was based on peak area ratios and calibration curve established by weighted (1/x^2) linear regression. The calibration curve was established between 5 and 5000 ng/mL using dog plasma as matrix. Data acquisition and integration of SIM chromatograms were performed using MacQuan (version 1.6) from Perkin-Elmer Sciex.
The pharmacokinetic parameters were estimated by non-compartmental analysis, using the pharmacokinetic evaluation program WinNOnlin [1]. AUC(0-inf) was calculated applying the linear trapezoidal rule and extrapolation to infinity using the apparent elimination rate constant λz and the calculated concentration at the last measurable time point. AUClast values were calculated by linear trapezoidal rule from time zero to time of last measureable time point. Cmax, C(t), and Tmax were determined directly from the plasma concentration-time profiles. The apparent terminal half-life (T1/2) was derived from the equation: T1/2=ln2/λz. Means of the half-life were calculated by harmonic means. Plasma clearance, CL, was calculated as D/AUC(0-inf.). Volume of distribution, Vz, was calculated as CL/λz. The absolute bioavailability was calculated from plasma concentration data as follows: […]
A solution of Formula I (hydrochloride salt) was administered intravenously at a dose of 9.4 mg/kg to 2 male rats in two subsequent experiments. In both studies, blood samples were obtained at 0.083, 0.25, 0.5, 1, 2, 4, 6, 8, and 24 h after intravenous application and in addition at 48 and 72 h in the study.

[2] = Pilot whole body autoradiography study in rats; assay type: in vivo
[3] = tested on: rat plasma proteins; assay: Binding to rat plasma proteins; assay type: in vitro ADME

With `Cc1ccccc1-c1cc(N2CCN(C)CC2)ncc1N(C)C(=O)C(C)(C)c1cc(C(F)(F)F)cc(C(F)(F)F)c1` [Formula I, 2-(3,5-bis(trifluoromethyl)phenyl)-N,2-dimethyl-N-(6-(4-methylpiperazin-1-yl)-4-(o-tolyl)pyridin-3-yl)propanamide] the “AUC (0-24 h)” value ([1]; ip, 9.4 mg/kg) was 19900 ng·h/mL, the Cmax ([1]; ip, 9.4 mg/kg) was 1730 ng/mL and the Tmax ([1]; ip, 9.4 mg/kg) was 0.25 h. It also gave an AUC(0-t) ([1]; ip, 9.4 mg/kg) of 26800 ng·h/mL, a Cmax ([1]; ip, 9.4 mg/kg, Cmax) of 1610 ng/mL and a Tmax ([1]; ip, 9.4 mg/kg, Tmax) of no more than 0.25 h. The Vd ([1]; iv) was 12 L/kg, the clearance ([1]; iv) was 6 mL/min/kg and the “AUC (0-24 h)” value ([1]; iv, 9.4 mg/kg) was 24400 ng·h/mL. The AUC(0-t) ([1]; iv, 9.4 mg/kg) was 29200 ng·h/mL, the half-life ([1]; iv, 9.4 mg/kg, mean apparent terminal half-life) was 19.5 h and the “AUC (0-24 h)” value ([1]; po, 9.4 mg/kg) was 12600 ng·h/mL. It also gave a Cmax ([1]; po, 9.4 mg/kg) of 682 ng/mL, a T1/2 ([1]; po, 9.4 mg/kg) of 18.9 h and a Tmax ([1]; po, 9.4 mg/kg) of 4 h. For the same compound, the AUC(0-t) ([1]; po, 9.4 mg/kg) was 15000 ng·h/mL, the Cmax ([1]; po, 9.4 mg/kg, Cmax) was 991 ng/mL and the half-life ([1]; po, 9.4 mg/kg, T1/2) was 17.7 h. The Tmax ([1]; po, 9.4 mg/kg, Tmax) was 2 h, the “distribution and elimination of the labeled compound and/or metabolites” value [2] was “extensive distribution of the labeled compound and/or metabolites as well as a very slow elimination from the body” and the “binding to rat plasma proteins” value [3] was 99.8%.
